Assay results as given in article PMC7036871, “Identification and Characterization of pantocin wh-1, a Novel Cyclic Polypeptide Produced by Pantoea dispersa W18” (Molecules, 2020).
“Also recorded” adds a separate entry of the source. Where a SMILES comes first, the peptide text is derived from it.

How the values were obtained:
[1] = Effect of pH on antibacterial activity; assay type: physicochemical; conditions: for Residual activity: compared with antimicrobial activity before the treatment
Description: (§1) Furthermore, the antibacterial activity of pantocin wh-1 also retained nearly 100% of the initial activity within a broad pH range (pH 2–12).
(§2) The effect of various enzymes, pH, and temperature on pantocin wh-1 activity was detected as described by J.-M. Chobert et al. with a slight modification. Proteinase K, trypsin, catalase, lysozyme, DNAse, and RNAse were used to test the antibacterial activity of pantocinwh-1. To analyze the effect of different pH values on the antibacterial activity of pantocin wh-1, the sample of pantocin wh-1 was exposed to buffer with a pH value of 2–12 for 1 h at 25 °C. The effect of temperature on the anti-mycobacterial activity of pantocin wh-1 was determined by incubating pantocin wh-1 at 50 °C and 100 °C for 60 min, as well as at 121 °C for 15 min, and then detecting the bactericidal activity against M. smegmatis mc^2 155.

RNase = RNase (Bos taurus, UniProt P61823); assay: Effect of enzymes on antibacterial activity: RNase; assay type: in vitro ADME
Sequence of RNase (P61823 27-150): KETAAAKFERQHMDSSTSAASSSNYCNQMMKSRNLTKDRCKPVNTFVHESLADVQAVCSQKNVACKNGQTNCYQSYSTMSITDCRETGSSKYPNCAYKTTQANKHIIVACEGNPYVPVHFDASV
Description: as §1, §2

[2] = test system: autoluminescent H37Ra (UAlRa); parameters: species or system BALB/c female mice; conditions: mouse, in vivo
E. coli O157 = assay: Antimicrobial spectrum, microporous dilution method; assay type: cell-based; parameters: key: -: no inhibitory activity; +: Inhibit the growth of less than 10% amount of the initial bacteria; ++: Inhibit the growth of less than 50% amount of the initial bacteria; +++: Inhibit the growth of initial bacteria completely; conditions: E. coli O157, medium LB
trypsin = assay: Effect of enzymes on antibacterial activity: trypsin; assay type: in vitro ADME
Description: as §1, §2

DNase = assay: Effect of enzymes on antibacterial activity: DNase; assay type: in vitro ADME
Description: as §1, §2

Klebsiella = assay: Antimicrobial spectrum, microporous dilution method; assay type: cell-based
Procedure: (§3) In this paper, the microporous dilution method was used to detect the antibacterial spectrum of pantocin wh-1 against Gram-negative and -positive bacteria. […] The time kill studies were determined over 8 h with M. smegmatis mc^2 155 being exposed to 0.5, 1, 2, or 4 × MIC of pantocin wh-1. […] At 2 × MIC and 4 × MIC, pantocin wh-1 caused bacterial eradication was completed approximately after 4 h.
(§4) The antibacterial activity of the pantocin wh-1 was detected by the microscale optical density assay (MODA) method. Briefly, 90 μL of the dilutions of pantocin wh-1, 100 μL 2 × 7H9 medium, and 10 μL of a log phase indicator strain were co-incubated in the 96-well plate at 37 °C for 48 h. For control groups, 90 μL of the dilutions of pantocin wh-1 were replaced by an equal volume of sterile water. After incubation, the 96 well microplate was measured by a microplate reader at a 600 nm wavelength (Biotek synergyH1, Biotek, Winooski, VT, USA). The amount of pantocin wh-1 produced by P. dispersa W18 was determined using two fold dilutions. […] The results were expressed in AU/mL. The MIC was defined as the last dilution of pantocin wh-1 sufficient to prevent indicator strain growth in vitro.

[3] = as above; assay type: cell-based; parameters: key: -: no inhibitory activity; +: Inhibit the growth of less than 10% amount of the initial bacteria; ++: Inhibit the growth of less than 50% amount of the initial bacteria; +++: Inhibit the growth of initial bacteria completely; conditions: White aureus 8799, medium LB
Procedure: as §3, §4

S. aureus B31 = assay: as above; assay type: cell-based; parameters: key: -: no inhibitory activity; +: Inhibit the growth of less than 10% amount of the initial bacteria; ++: Inhibit the growth of less than 50% amount of the initial bacteria; +++: Inhibit the growth of initial bacteria completely; conditions: S. aureus B31, medium LB
Procedure: as §3, §4

S. pyogenes = assay: as above; assay type: cell-based; parameters: key: -: no inhibitory activity; +: Inhibit the growth of less than 10% amount of the initial bacteria; ++: Inhibit the growth of less than 50% amount of the initial bacteria; +++: Inhibit the growth of initial bacteria completely; conditions: medium BHI
Procedure: as §3, §4

Bacillus cereus = assay: as above; assay type: cell-based; parameters: key: -: no inhibitory activity; +: Inhibit the growth of less than 10% amount of the initial bacteria; ++: Inhibit the growth of less than 50% amount of the initial bacteria; +++: Inhibit the growth of initial bacteria completely; conditions: medium LB
Procedure: as §3, §4

S. aureus 21A = assay: as above; assay type: cell-based; parameters: key: -: no inhibitory activity; +: Inhibit the growth of less than 10% amount of the initial bacteria; ++: Inhibit the growth of less than 50% amount of the initial bacteria; +++: Inhibit the growth of initial bacteria completely; conditions: medium LB
Procedure: as §3, §4

Feces Enterococcus = assay: as above; assay type: cell-based; parameters: key: -: no inhibitory activity; +: Inhibit the growth of less than 10% amount of the initial bacteria; ++: Inhibit the growth of less than 50% amount of the initial bacteria; +++: Inhibit the growth of initial bacteria completely; conditions: medium BHI
Procedure: as §3, §4

P. aeruginosa = assay: as above; assay type: cell-based; parameters: key: -: no inhibitory activity; +: Inhibit the growth of less than 10% amount of the initial bacteria; ++: Inhibit the growth of less than 50% amount of the initial bacteria; +++: Inhibit the growth of initial bacteria completely; conditions: medium LB
Procedure: as §3, §4

S. aureus AM025 = assay: as above; assay type: cell-based; parameters: key: -: no inhibitory activity; +: Inhibit the growth of less than 10% amount of the initial bacteria; ++: Inhibit the growth of less than 50% amount of the initial bacteria; +++: Inhibit the growth of initial bacteria completely; conditions: S. aureus AM025, medium LB
Procedure: as §3, §4

Dysgalactiae = assay: as above; assay type: cell-based; parameters: key: -: no inhibitory activity; +: Inhibit the growth of less than 10% amount of the initial bacteria; ++: Inhibit the growth of less than 50% amount of the initial bacteria; +++: Inhibit the growth of initial bacteria completely; conditions: medium BHI
Procedure: as §3, §4

L .monocytogenes = assay: as above; assay type: cell-based, Listeria monocytogenes
Procedure: as §3, §4

S. aureus N315 = assay: as above; assay type: cell-based; parameters: key: -: no inhibitory activity; +: Inhibit the growth of less than 10% amount of the initial bacteria; ++: Inhibit the growth of less than 50% amount of the initial bacteria; +++: Inhibit the growth of initial bacteria completely; conditions: S. aureus N315, medium LB

CSCC[C@@H]1NC(=O)[C@H](C(C)C)NC(=O)[C@H](Cc2c[nH]c3ccccc23)NC(=O)[C@H](C(C)C)NC(=O)[C@H](C)NC(=O)[C@H](CS)NC(=O)[C@H](CC(N)=O)NC(=O)[C@H](Cc2ccccc2)NC(=O)CNC(=O)[C@H](Cc2ccc(O)cc2)NC(=O)CNC(=O)[C@H](Cc2ccccc2)NC(=O)[C@H](C(C)C)NC(=O)[C@H](Cc2ccc(O)cc2)NC(=O)[C@H](CS)NC(=O)[C@H](Cc2c[nH]c3ccccc23)NC1=O [pantocin wh-1] (cyclo(AVWVMWCYVFGYGFNC))
retained initial antibacterial activity ([1]; broad pH range (pH 2–12)): ~100%
Residual activity ([1]; pH2-6, buffer 1 h at 25 °C): 90%
Residual activity ([1]; pH6-8, buffer 1 h at 25 °C): 100%
Residual activity ([1]; pH8-12, buffer 1 h at 25 °C): 85%
antibacterial activity after RNase A (RNase; RNase A): insensitive
Residual activity (RNase; RNase treatment, compared with antimicrobial activity before the treatment): 100%
relative light unit (RLU) value [2]: significant decrease
therapeutic effect compared with streptomycin [2]: did not exceed that of streptomycin
Inhibition activity (E. coli O157): -
inhibitory activity after trypsin (trypsin; trypsin): not completely inactivated; also recorded: partial sensitivity
Residual activity (trypsin; trypsin treatment, compared with antimicrobial activity before the treatment): 27%
antibacterial activity after DNase I (DNase; DNase I): insensitive
Residual activity (DNase; DNase treatment, compared with antimicrobial activity before the treatment): 100%
inhibitory activity (Klebsiella): partial inhibitory activity
Inhibition activity [3]: -
Inhibition activity (S. aureus B31): -
Inhibition activity (S. pyogenes): -
Inhibition activity (Bacillus cereus): -
Inhibition activity (S. aureus 21A): -
Inhibition activity (Feces Enterococcus): -
Inhibition activity (P. aeruginosa): -
Inhibition activity (S. aureus AM025): -
Inhibition activity (Dysgalactiae): -
Inhibition activity (L .monocytogenes; L .monocytogenes, medium BHI): + (Inhibit the growth of less than 10% amount of the initial bacteria)
inhibitory activity (L .monocytogenes; Listeria monocytogenes): partial inhibitory activity
Inhibition activity (S. aureus N315): -
activity after pepsin (pepsin): not completely inactivated
